Measured values from publication PMC6269909, “Investigating the Antioxidant and Acetylcholinesterase Inhibition Activities of Gossypium herbaceam” (Molecules, 2013).
Like-named read-outs stand apart in the source and are kept apart here.

Columns and labels:
[1] = Lipid peroxidation assay (TBARS), egg yolk homogenates; type: biochemical; details: Table 2; egg yolk homogenate, FeSO4; mean of three replicates; read-out: IC50 for inhibition of peroxidation of lipids, estimated as thiobarbituric acid reactive substances
Description: Lipid peroxidation involves the formation and propagation of lipid radicals with numerous deleterious effects, including destruction of membrane lipids, metabolic disorders and inflammation, and production of malondialdehyde (MDA) is a hallmark of this process. Inhibition of lipid peroxidation was assessed by amount of MDA produced. Lipids in egg yolk undergo rapid nonenzymatic peroxidation in the presence of ferrous sulphate. […] Phenolics present in plant sources have received considerable attention over the past decade because of their potential to prevent lipid peroxidation and diseases associated with it.
A modified thiobarbituric acid-reactive species (TBARS) assay was used to measure the lipid peroxide formed, using egg yolk homogenates as lipid-rich media. Adapted TBARS method was employed to measure the antioxidant capacity. Briefly, egg homogenate (100 μL of 1:25, v/v in phosphate-buffered saline (PBS) PH 7.4) and 10 μL of different concentrations of sample were added to a test tube as well as added 25 mmol/L freshly prepared FeSO4 made up to 300 μL with PBS. The homogenate was incubated at 37 °C for 15 min and then the reaction was stopped by adding 50 μL 15% w/v trichloroacetic acid (TCA) and centrifugation (3,500 rpm) for 15 min. An aliquot of 200 μL from supernatant was mixed with 100 μL thiobarbituric acid (TBA) and heated at 95 °C for 30 min.

[2] = ABTS radical scavenging assay; type: biochemical; details: Table 2, mean of three replicates, read-out: IC50 for inhibition of ABTS radical formation
Excerpt: (§1) The DPPH radical activity test was used to measure the hydrogen atom or electron donor capacity of the samples to the stable radical DPPH formed in liquid solution. Thus, it measures the capacity of the samples to scavenge free radicals in solution [17]. Proton radical scavenging is an important attribute of antioxidants. […] ABTS, a protonated radical, has characteristic absorbance at 734 nm which decreases with the scavenging of the proton radicals. […]
The ABTS radical scavenging method was developed by Rice-Evans and Miller in 1994 and was then modified by Rice-Evants et al. in 1999. The modification is based on the activation of metmyo-globin with hydrogen peroxide in the presence of ABTS^•+ to produce a radical cation. This improved method generates a blue/green ABTS^•+ chromophore via the reaction of ABTS and potassium persulfate and is now widely used. The antioxidant activity is then measured by the decrease in absorption at 734 nm. In brief, ABTS radical cation (ABTS^•+) was produced by reacting ABTS stocking solution with […] potassium persulfate and kept in the dark at room temperature for 12–16 h before use. The samples containing the ABTS^•+ solution were diluted with methanol to obtain an absorbance of 0.700 (±0.02) at 734 nm and equilibrated at 30 °C. The ABTS^•+ solution was freshly prepared for each assay. Different concentrations of compounds (16 μL) were allowed to react with 184 μL of the ABTS^•+ solution and the absorbance was taken at 734 nm after 7 min using spectrophotometer. The ABTS^•+ scavenging capacity of the compound percentage inhibition was calculated using formula: ABTS radical scavenging activity (%) = [(Abscontrol − Abscompound)]/(Abscontrol)] × 100, where Abscontrol is the absorbance of ABTS radical + methanol; Abscompound is the absorbance of ABTS radical + compound/standard.

[3] = DPPH radical scavenging assay; type: biochemical; details: Table 2, mean of three replicates, read-out: IC50 for inhibition of DPPH radical formation
Excerpt: as §1
DPPH is a stable free radical that reacts with compounds that can donate a hydrogen atom. This method is based on the scavenging of DPPH through the addition of a radical species or an antioxidant that decolorizes the DPPH solution. The antioxidant activity is then measured by the extent of decrease in absorption at 515 nm. In brief, a 0.2 mM solution of DPPH in methanol was prepared, and 100 μL of this solution was added to 100 μL of the sample solution in methanol at varying concentrations. The solutions in the 96 well micro plates were shaken well and incubated in the dark for 30 minutes at room temperature. The absorbance was measured at 515 nm. A large decrease in the absorbance of the reaction mixture indicates substantial free radical scavenging activity of the compound. DPPH radical scavenging activity (%) = [(Abscontrol − Abscompound)]/(Abscontrol)] × 100 where Abscontrol is the absorbance of DPPH radical + methanol; Abscompound is the absorbance of DPPH radical + compound/standard.

[4] = target: T1, Acetylcholinesterase (AChE) type VI-S from electric eel (Electrophorus electricus, UniProt O42275); experiment: biochemical
T1 construct: purchased Sigma (St. Louis, MO, USA)
Excerpt: Acetylcholinesterase (AChE) type VI-S from electric eel, 5-5′-dithiobis-[2-nitrobenzoicacid] (DTNB), 1-1-diphenyl-2-picrylhydrazyl (DPPH), 2,2'-azinobis-(3-ethylbenzothiazoline-6-sulfonic acid) (ABTS), acetylthiocholine iodide (AChI), dimethyl sulfoxide (DMSO), ferrous sulfate (FeSO4·7H2O), thiobarbituric acid (TBA), trichloroacetic acid (TCA), potassium ferricyanide were obtained from Sigma (St. Louis, MO, USA). L-3-ketothreohexuronic acid lactone (vitamin C) and huperzine A were purchased from the National Institutes for Food and Drug Control, Beijing, China. All the other reagents were of analytical grade.
Inhibition of acetyl cholinesterase activity of samples was measured by the micro-plate assay adapted. AChE inhibitory activity was measured by slightly modifying the spectrophotometric method from the literature which was initially developed by Ellman. Briefly, in this method, 100 μL of […] sodium phosphate buffer (pH = 8.0), 20 μL of DTNB, 20 μL of test solution and 2 μL of AChE solution were added using a multichannel automatic pipette into a 96-well micro plate and incubated for 15 min at 25 °C.

PC12 cells = experiment: tBHP exposure in PC12 cells, cell viability (MTT); type: cell-based, Rat; details: for Protection against tBHP-induced cell death in PC12 cells (cell viability, MTT): pre-treated 100 μM for 24 h, then tBHP 200 μM for 3 h, p < 0.05
Description: tBHP caused a reduction in cell viability with an IC50 value for PC12 cells death at 200 μM. PC12 cells were an established model of nerve growth factor (NGF) - induced neurite formation. […] In the control sample, the value of cell viability was set to be 100%.
Rat pheochromocytoma cells (PC12) cells were kindly donated by Professor Dong T. X. (The Hong Kong University of Science and Technology, Hong Kong, China). PC12 cells were maintained in 75 cm culture flasks containing 20 mL of RPMI-1640 media supplemented with 1% FBS, 1% L-glutamine, 1% non-essential amino acids and 1% penicillin/streptomycin. Cells were maintained in an incubator at 37 °C with 5% CO2. Experiments and cell maintenances were performed in a laminar flow hood under sterile conditions. Cells were passaged every 4–5 days and detached from flasks using 1× trypsin EDTA. Cell counts were performed using trypan blue to stain non viable cells, which were excluded from the count. Ninety-six well plates were used for cell viability experiments. The cells were then allowed to equilibrate for 24 h before the experiment.
H2O2 is a well established pro-oxidant in PC12 cells over the concentration range used. tBHP shares some of the same properties of H2O2 but generates a more shallow neurotoxicity response over a wider concentration range than H2O2 in PC12 cells and elicits greater lipid peroxidation. […] For anti-oxidation effect, the cultures were treated with tBHP (200 μM) for 3 h. Cultures were subjected to cell viability test using the colorimetric MTT assay. Purple crystal inside the cells was dissolved by DMSO and measured by absorbance at 570 nm.

[5] = Table 2, mean of three replicates, read-out: IC50 for inhibition of AChE

T1 sequence (O42275 24-633): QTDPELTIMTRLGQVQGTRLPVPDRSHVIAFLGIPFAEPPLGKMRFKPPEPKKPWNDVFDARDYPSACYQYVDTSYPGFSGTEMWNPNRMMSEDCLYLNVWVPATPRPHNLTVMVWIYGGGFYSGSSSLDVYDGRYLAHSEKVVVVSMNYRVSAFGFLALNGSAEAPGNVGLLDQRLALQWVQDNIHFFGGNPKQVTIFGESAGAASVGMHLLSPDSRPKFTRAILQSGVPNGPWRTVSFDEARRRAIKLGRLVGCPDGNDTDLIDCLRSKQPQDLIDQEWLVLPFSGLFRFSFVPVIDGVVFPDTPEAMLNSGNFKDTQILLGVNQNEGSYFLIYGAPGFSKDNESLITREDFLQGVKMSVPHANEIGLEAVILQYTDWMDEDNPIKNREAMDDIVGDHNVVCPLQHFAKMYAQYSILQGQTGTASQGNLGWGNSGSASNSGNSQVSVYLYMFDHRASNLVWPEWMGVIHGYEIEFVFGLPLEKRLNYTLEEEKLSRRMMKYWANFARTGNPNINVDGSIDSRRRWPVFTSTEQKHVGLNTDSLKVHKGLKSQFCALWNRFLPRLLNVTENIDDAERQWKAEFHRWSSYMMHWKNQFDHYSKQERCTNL

SMILES	IC50 [1] [µM]	IC50 [2] [µM]	IC50 [3] [µM]	IC50 [4] [µM]	IC50 [4, 5] [µM]	Protection against tBHP-induced cell death in PC12 cells (cell viability, MTT) (PC12 cells)	IC50 ([2]; listed as quercetin) [µM]	IC50 ([3]; listed as quercetin) [µM]	IC50 (PC12 cells; reduction in cell viability by tBHP, read-out: IC50 value for PC12 cells death) [µM]
O=c1c(O[C@@H]2O[C@H](CO)[C@H](O)[C@H](O)[C@H]2O)c(-c2ccc(O)c(O)c2)oc2cc(O)cc(O)c12 [Hyperoside]	7.47	113	11.2	94.6					
O=c1c(O[C@@H]2O[C@H](CO)[C@@H](O)[C@H](O)[C@H]2O)c(-c2ccc(O)c(O)c2)oc2cc(O)cc(O)c12 [Isoquercetin]	8.81	26.9	3.65	57					
COc1cc(-c2oc3cc(O[C@@H]4O[C@H](CO)[C@@H](O)[C@H](O)[C@H]4O)cc(O)c3c(=O)c2O)ccc1O [Isorhamnetin-7-O-β-D-glucopyranoside]	7.2	21.8	1.73		55.7				
O=c1c(O)c(-c2ccc(O)cc2)oc2cc(O)cc(O)c12 [Kaempferol]		41.4	5.52			could exert the anti-oxidation effect in protecting the tBHP-induced cell death			
O=c1c(O[C@@H]2O[C@H](CO)[C@@H](O)[C@H](O)[C@H]2O)c(-c2ccc(O)c(O)c2)oc2cc(O[C@@H]3O[C@H](CO)[C@@H](O)[C@H](O)[C@H]3O)cc(O)c12 [Quercetin-3,7-di-O-β-D-glucopyranosid]	33.4	50.8	5.48		67.1				
O=c1c(O)c(-c2ccc(O)c(O[C@@H]3O[C@H](CO)[C@@H](O)[C@H](O)[C@H]3O)c2)oc2cc(O)cc(O)c12 [Quercetin-3′-O-β-D-glucoside]	8.9	34.7	3.75		88.6	could exert the anti-oxidation effect in protecting the tBHP-induced cell death			
O=c1c(O)c(-c2ccc(O)c(O)c2)oc2cc(O)cc(O)c12 [Quercetin]	13.1	19.6	0.84				0.84	19.6	
O=c1c(O)c(-c2ccc(O)c(O)c2)oc2cc(OC3OC(CO)C(O)C(O)C3O)cc(O)c12 (stereo not drawn) [Quercimeritin]	6.85	24.9	3.69	52.3		could exert the anti-oxidation effect in protecting the tBHP-induced cell death			
O=C1O[C@H]([C@@H](O)CO)C(O)=C1O [Vit C, L-3-ketothreohexuronic acid lactone, reference compound]						protect the cells against oxidation significantly			
CC(C)(C)OO [tBHP, tertiary butyl hydroperoxide, reference compound]									200
